Reference: patent US4171363A, “1,2,3-Thiadiazole process” (priority 1978, dated 1979)
Structures can show the parent of a compound that is named as a salt.

Experiments:
[1] = test system: spontaneous hypertensive rats; experiment: antihypertensive activity by oral administration to spontaneous hypertensive rats; assay type: in vivo, rat; details: for ED50 / Antihypertensive Activity Ratio (A): oral, spontaneous hypertensive rat; for ED50: read-out: Antihypertensive ED50 mm Hg; for Antihypertensive Activity Ratio (A): relative to prazosin
Method: (§1) In Table 1, antihypertensive activity was determined by oral administration to spontaneous hypertensive rats, the in vitro α-adrenergic receptor blocking effect was determined according to the following test method.

α-adrenergic receptor [2] = molecular target: T1, α-adrenergic receptor (Rattus norvegicus, UniProt P43140); experiment: isolated rat seminal vesicle assay, in vitro α-adrenergic receptor blocking effect against norepinephrine; details: relative to prazosin; isolated rat seminal vesicle, test compound 10 nanograms/ml, norepinephrine agonist
T1 construct: Seminal vesicles were removed and transferred to a shallow disk containing modified Tyrode's solution; from tissue; host or cells: isolated seminal vesicle of male Long Evans rats
T1 sequence (P43140 1-466): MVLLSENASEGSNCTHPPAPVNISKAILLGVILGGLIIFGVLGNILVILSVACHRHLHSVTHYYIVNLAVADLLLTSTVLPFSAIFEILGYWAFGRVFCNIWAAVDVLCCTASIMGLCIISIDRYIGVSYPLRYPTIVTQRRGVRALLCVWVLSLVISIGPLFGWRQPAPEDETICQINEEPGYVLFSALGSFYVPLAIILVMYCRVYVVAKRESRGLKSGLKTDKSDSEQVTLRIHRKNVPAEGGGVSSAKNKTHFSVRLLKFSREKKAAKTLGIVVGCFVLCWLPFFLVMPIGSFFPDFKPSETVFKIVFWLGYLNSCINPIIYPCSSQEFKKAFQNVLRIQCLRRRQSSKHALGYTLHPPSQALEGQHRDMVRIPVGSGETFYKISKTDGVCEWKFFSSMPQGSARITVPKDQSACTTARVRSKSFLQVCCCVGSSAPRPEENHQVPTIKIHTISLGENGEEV
Method: as §1
(§2) Dungan et al, Int. […] Lietch et al, Brit.
(§3) Male Long Evans rats weighing approximately 300 g. were sacrificed by a sharp blow on the head. Seminal vesicles were removed and transferred to a shallow disk containing modified Tyrode's solution. The vesicles were emptied of their contents by squeezing them gently with a pair of forceps. Silk thread (4-0) was attached to both ends of the vesicle and it was suspended in a 20 ml. muscle chamber containing modified oxygenated Tyrode's solution (g./liter: NaCl 8, KCl 0.2, CaCl2 0.26, NaHCO3 1, Na2 HPO4 0.0575, glucose 0.5 and MgCl2 0.02). The bathing fluid was maintained at 37° C. with a thermostatically controlled isolated organ tissue bath. Contractions were recorded isometrically by means of a force displacement transducer and recordings were made with a Beckman RP Dynograph. Norepinephrine (NE) was added to the muscle chamber in volumes ranging from 0.1 to 0.4 ml. with a one ml. syringe attached to a 3 inch 20 gauge needle. NE and test compounds were dissolved in deionized water.
(§4) NE response curves were obtained alone and in the presence of test compounds. NE was allowed to remain in contact with the strip until a maximal contraction was obtained. The strip was then washed with the perfusion fluid for 15-30 seconds and the preparation was allowed to return to base line before a subsequent dose of NE was given. Increasing amounts of NE were injected into the bath in the same manner until a complete dose response was obtained.
(§5) The seminal vesicles used to obtain the control NE dose response were discarded and new preparations were placed in the tissue bath for evaluation of the test compound. The test compound was added directly to the perfursion fluid (10 nanograms/ml.) and the strips were allowed to remain in contact with the bathing media for at least 10 minutes before the NE dose response was determined.
(§6) ED50 values for NE were obtained by regression analysis as described by Finney, Probit. Analysis, 2d Ed., Cambridge (1964). A minimum of 4 strips and at least 4 doses were employed to calculate the regression lines. The ED50 value is defined as the concentration of NE which produces a contraction equal to 50% of the maximal contraction.

α-adrenergic receptor [3] = experiment: as above; details: antihypertensive activity ratio (A) over α-adrenergic blocking activity ratio (B)
Method: as §1, §2, §3, §4, §5, §6

humans = details: cited from earlier work
patients = details: human, in vivo; cited from earlier work

Structure (SMILES)	reduction in systolic blood pressure ([1]; 24 hours after oral dose of 10 mg./kg., spontaneous hypertensive rats) [%]	ED50 [1] [mg/kg]	Antihypertensive Activity Ratio (A) [1]	α-Adr. Bl. Activity Ratio (B) (α-adrenergic receptor [2])	Ratio A/B (α-adrenergic receptor [3])	antihypertensive strength compared to prazosin (in words) (humans; clinical daily dose approximately 150 to 500 mg. for trimazosin, 1.5 to 15 mg. for prazosin)	antihypertensive activity in humans (in words) (humans; humans)	adverse reactions, recent reports (in words) (patients)
CCOC(=O)Nc1snnc1C(=O)N1CCN(c2nc(N)c3cc(OC)c(OC)cc3n2)CC1 [Example 1, 4-Amino-6,7-dimethoxy-2-[4-(5-ethoxycarbonylamino-1,2,3-thiadiazole-4-carbonyl)-piperazin-1-vl]-quinazoline Hydrochloride]	22	2.8	0.75	0.15	5.0			
COc1cc2nc(N3CCN(C(=O)c4csnn4)CC3)nc(N)c2cc1OC.Cl [Example 2, 4Amino-6,7-dimethoxy-2-[4-(1,2,3-thiadiazole-4-carbonyl)piperazin-1-yl]quinazoline Hydrochloride]		4	0.53	0.27	2.0			
COc1cc2nc(N3CCN(C(=O)c4cnns4)CC3)nc(N)c2cc1OC.Cl [Example 3, 4-Amino-6,7-dimethoxy-2-[4-(1,2,3-thiadiazole-5-carbonyl)piperazin-1-yl]quinazoline Hydrochloride]		4	0.53	0.23	2.3			
COc1cc2c(N)nc(N3CCN(C(=O)OCC(C)(C)O)CC3)nc2c(OC)c1OC [Trimazosin]						much weaker drug than prazosin	active in humans as an antihypertensive agent	
COc1cc2nc(N3CCN(C(=O)c4ccco4)CC3)nc(N)c2cc1OC [prazosin, 2-[4-(2-furoyl)-piperazin-1-yl]-4-amino-6,7-dimethoxyquinazoline, reference compound]		2.1						severe adverse reactions of postural hypotension in some patients
